Earlier results, collected in publication PMC10872542 (Structure (London, England : 1993), 2023).

Test system: TRPV5
Details: read-out: IC50 of TRPV5 inhibition

| IC50 | SMILES |
| --- | --- |
| ~3 µM | CC(OC(=O)CC1Sc2ccccc2NC1=O)c1nc2scc(-c3ccccc3)c2c(=O)[nH]1 (stereo not drawn) [ZINC9155420] |
| ~0.1 µM | O=C(CCN1C(=O)COc2ccccc21)OCc1nc2scc(-c3ccccc3)c2c(=O)[nH]1 [ZINC17988990] |
| ~0.1 µM | Cl.Cl.Cl.Cl.Cl.Cl.N.N.N.N.N.N.N.N.N.N.N.N.N.N.[O-2].[O-2].[Ru+3].[Ru+3].[Ru+4] [ruthenium red] |
